Source: PMC2920594 (Journal of the American Chemical Society, 2010)
Converted amounts (≈) assume the structure as drawn.

Biological target: FtsZ (Escherichia coli, UniProt P0A9A6)
Experiment: STD NMR and STD NMR competition with GTPγS
Type: biochemical

FtsZ, sequence (P0A9A6 whole entry): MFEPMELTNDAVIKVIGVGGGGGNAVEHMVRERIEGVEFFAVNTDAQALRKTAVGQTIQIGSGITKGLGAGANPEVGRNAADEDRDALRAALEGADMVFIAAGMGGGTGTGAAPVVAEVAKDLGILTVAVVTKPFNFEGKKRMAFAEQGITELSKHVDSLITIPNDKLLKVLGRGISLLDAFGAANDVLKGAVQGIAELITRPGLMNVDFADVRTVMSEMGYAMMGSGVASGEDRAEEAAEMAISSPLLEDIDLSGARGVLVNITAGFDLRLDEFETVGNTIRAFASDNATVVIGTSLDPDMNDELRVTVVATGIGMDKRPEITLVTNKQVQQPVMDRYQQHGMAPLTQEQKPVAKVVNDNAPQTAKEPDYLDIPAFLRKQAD

Question: How did the IC50 turn out when Oc1cc(O)c2c(c1)C/C(Cl)=C\Cc1cc(c(Cl)cc1O)Oc1c(O)cc(cc1O)C/C(Cl)=C\Cc1cc(c(Cl)cc1O)O2 [compound 1, chrysophaentin A] was run?
Answer: 6.7 ± 1.7 µg/mL (≈ 9.88 µM)
